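GI50 is the concentration that inhibits growth by half. The concentration for full growth arrest is given as TGI.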
How the values were obtained:
Experiment in all cases: NCI anticancer screen, dose series, 384-well format
786-0 renal = system: 786-0 renal
A498 renal = system: A498 renal
A549 NSCLC = system: A549 NSCLC
ACHN renal = system: ACHN renal
BT-549 breast = system: BT-549 breast
CAKI-1 renal = system: CAKI-1 renal
COLO 205 colon = system: COLO 205 colon
DU-145 prostate = system: DU-145 prostate
EKVX NSCLC = system: EKVX NSCLC
HCT-116 colon = system: HCT-116 colon
HCT-15 colon = system: HCT-15 colon
HL-60(TB) leukemia = system: HL-60(TB) leukemia
HOP-62 NSCLC = system: HOP-62 NSCLC
HOP-92 NSCLC = system: HOP-92 NSCLC
HS 578T breast = system: HS 578T breast
HT29 colon = system: HT29 colon
IGROV1 ovarian = system: IGROV1 ovarian
K-562 leukemia = system: K-562 leukemia
KM12 colon = system: KM12 colon
M14 melanoma = system: M14 melanoma
MALME-3M melanoma = system: MALME-3M melanoma
MCF7 breast = system: MCF7 breast
MDA-MB-231 breast = system: MDA-MB-231 breast
MDA-MB-435 melanoma = system: MDA-MB-435 melanoma
MDA-MB-468 breast = system: MDA-MB-468 breast
MOLT-4 leukemia = system: MOLT-4 leukemia
NCI-H226 lung = system: NCI-H226 lung
NCI-H23 lung = system: NCI-H23 lung
NCI-H322M lung = system: NCI-H322M lung
NCI-H460 NSCLC = system: NCI-H460 NSCLC
NCI-H522 lung = system: NCI-H522 lung
OVCAR-3 ovarian = system: OVCAR-3 ovarian
OVCAR-4 ovarian = system: OVCAR-4 ovarian
OVCAR-5 ovarian = system: OVCAR-5 ovarian
OVCAR-8 ovarian = system: OVCAR-8 ovarian
PC-3 prostate = system: PC-3 prostate
RXF 393 renal = system: RXF 393 renal
SF-268 CNS = system: SF-268 CNS
SF-295 CNS = system: SF-295 CNS
SF-539 CNS = system: SF-539 CNS
SK-MEL-2 melanoma = system: SK-MEL-2 melanoma
SK-MEL-28 melanoma = system: SK-MEL-28 melanoma
SK-MEL-5 melanoma = system: SK-MEL-5 melanoma
SK-OV-3 ovarian = system: SK-OV-3 ovarian
SN12C renal = system: SN12C renal
SNB-19 CNS = system: SNB-19 CNS
SNB-75 CNS = system: SNB-75 CNS
SR leukemia = system: SR leukemia
SW-620 colon = system: SW-620 colon
T-47D breast = system: T-47D breast
TK-10 renal = system: TK-10 renal
U251 glioblastoma = system: U251 glioblastoma
UACC-257 melanoma = system: UACC-257 melanoma
UACC-62 melanoma = system: UACC-62 melanoma
UO-31 renal = system: UO-31 renal
CCRF-CEM leukemia = system: CCRF-CEM leukemia
HCC-2998 colon = system: HCC-2998 colon
LOX IMVI melanoma = system: LOX IMVI melanoma
RPMI-8226 leukemia = system: RPMI-8226 leukemia

## C#CC[C@H](c1nc2cc(Cl)ccc2c(=O)n1Nc1ccccc1)N(CCCN)C(=O)c1cccc(Cl)c1F
786-0 renal
  GI50: 678 nM
  TGI: 1960 nM
A498 renal
  GI50: 553 nM
  TGI: 1820 nM
A549 NSCLC
  GI50: 62.5 nM
  TGI: 1880 nM
ACHN renal
  GI50: 1.11 µM
  TGI: 2320 nM
BT-549 breast
  GI50: 166 nM
  TGI: 1080 nM
CAKI-1 renal
  GI50: 795 nM
  TGI: 2030 nM
COLO 205 colon
  GI50: 30.3 nM
  TGI: 82.9 nM
DU-145 prostate
  GI50: 58.9 nM
  TGI: 1060 nM
EKVX NSCLC
  GI50: 89.6 nM
  TGI: 1460 nM
HCT-116 colon
  GI50: 36.5 nM
  TGI: 1170 nM
HCT-15 colon
  GI50: 1500 nM
  TGI: 2.85 µM
HL-60(TB) leukemia
  GI50: 19.9 nM
  TGI: 34.6 nM
HOP-62 NSCLC
  GI50: 354 nM
  TGI: 1540 nM
HOP-92 NSCLC
  GI50: 674 nM
  TGI: 2140 nM
HS 578T breast
  GI50: 17.8 nM
  TGI: 44.8 nM
HT29 colon
  GI50: 36.1 nM
  TGI: 173 nM
IGROV1 ovarian
  GI50: 1030 nM
  TGI: 2220 nM
K-562 leukemia
  GI50: 44.9 nM
  TGI: 219 nM
KM12 colon
  GI50: 56.8 nM
  TGI: 670 nM
M14 melanoma
  GI50: 363 nM
  TGI: 1440 nM
MALME-3M melanoma
  GI50: 189 nM
  TGI: 1.76 µM
MCF7 breast
  GI50: 23.1 nM
  TGI: 1110 nM
MDA-MB-231 breast
  GI50: 63 nM
  TGI: 1700 nM
MDA-MB-435 melanoma
  GI50: 17.8 nM
  TGI: 35.9 nM
MDA-MB-468 breast
  GI50: 18.3 nM
  TGI: 39.6 nM
MOLT-4 leukemia
  GI50: 19.4 nM
  TGI: 34.4 nM
NCI-H226 lung
  GI50: 1110 nM
  TGI: 2310 nM
NCI-H23 lung
  GI50: 73.7 nM
  TGI: 799 nM
NCI-H322M lung
  GI50: 52.8 nM
  TGI: 1520 nM
NCI-H460 NSCLC
  GI50: 48 nM
  TGI: 1120 nM
NCI-H522 lung
  GI50: 20 nM
  TGI: 40.2 nM
OVCAR-3 ovarian
  GI50: 30.2 nM
  TGI: 277 nM
OVCAR-4 ovarian
  GI50: 521 nM
  TGI: 2.09 µM
OVCAR-5 ovarian
  GI50: 468 nM
  TGI: 1.86 µM
OVCAR-8 ovarian
  GI50: 189 nM
  TGI: 1220 nM
PC-3 prostate
  GI50: 57 nM
  TGI: 1590 nM
RXF 393 renal
  GI50: 41 nM
  TGI: 288 nM
SF-268 CNS
  GI50: 48.6 nM
  TGI: 1450 nM
SF-295 CNS
  GI50: 227 nM
  TGI: 650 nM
SF-539 CNS
  GI50: 27.3 nM
  TGI: 75.1 nM
SK-MEL-2 melanoma
  GI50: 21.6 nM
  TGI: 43.5 nM
SK-MEL-28 melanoma
  GI50: 1290 nM
  TGI: 2560 nM
SK-MEL-5 melanoma
  GI50: 77.4 nM
  TGI: 737 nM
SK-OV-3 ovarian
  GI50: 29.9 nM
  TGI: 648 nM
SN12C renal
  GI50: 109 nM
  TGI: 1860 nM
SNB-19 CNS
  GI50: 863 nM
  TGI: 2160 nM
SNB-75 CNS
  GI50: 58.9 nM
  TGI: 1530 nM
SR leukemia
  GI50: 18.9 nM
  TGI: 34.3 nM
SW-620 colon
  GI50: 65.2 nM
  TGI: 1250 nM
T-47D breast
  GI50: 57.7 nM
  TGI: 1600 nM
TK-10 renal
  GI50: 1070 nM
  TGI: 2270 nM
U251 glioblastoma
  GI50: 45 nM
  TGI: 1330 nM
UACC-257 melanoma
  GI50: 60.4 nM
  TGI: 1900 nM
UACC-62 melanoma
  GI50: 51.7 nM
  TGI: 1440 nM
UO-31 renal
  GI50: 1790 nM
  TGI: 3.18 µM

## O=C(c1cc(-c2cc3c(cc2C(=O)N2Cc4ccccc4C[C@H]2CN2CCOCC2)OCO3)n2c1CCCC2)N(c1ccccc1)c1ccc(O)cc1
A498 renal
  GI50: 806 nM
  TGI: 3570 nM
ACHN renal
  GI50: 4.91 µM
  TGI: > 100000 nM
CCRF-CEM leukemia
  GI50: 255 nM
  TGI: 618 nM
HCC-2998 colon
  GI50: 1270 nM
  TGI: 2830 nM
HCT-15 colon
  GI50: 1750 nM
  TGI: 3.22 µM
HL-60(TB) leukemia
  GI50: 146 nM
  TGI: 280 nM
HOP-92 NSCLC
  GI50: 502 nM
  TGI: 2420 nM
HT29 colon
  GI50: 419 nM
  TGI: 1460 nM
IGROV1 ovarian
  GI50: 2770 nM
  TGI: > 100000 nM
LOX IMVI melanoma
  GI50: 1420 nM
  TGI: 3.25 µM
M14 melanoma
  GI50: 475 nM
  TGI: 1700 nM
MALME-3M melanoma
  GI50: 473 nM
  TGI: 4.71 µM
MCF7 breast
  GI50: 412 nM
  TGI: 3000 nM
MDA-MB-231 breast
  GI50: 1190 nM
  TGI: 3230 nM
MDA-MB-435 melanoma
  GI50: 144 nM
  TGI: 351 nM
MDA-MB-468 breast
  GI50: 214 nM
  TGI: 456 nM
MOLT-4 leukemia
  GI50: 182 nM
  TGI: 327 nM
NCI-H226 lung
  GI50: 1010 nM
  TGI: 3180 nM
NCI-H322M lung
  GI50: 2430 nM
  TGI: > 100000 nM
OVCAR-3 ovarian
  GI50: 210 nM
  TGI: 497 nM
OVCAR-4 ovarian
  GI50: 1290 nM
  TGI: 4.43 µM
OVCAR-5 ovarian
  GI50: 2760 nM
  TGI: 8.21 µM
RPMI-8226 leukemia
  GI50: 207 nM
  TGI: 437 nM
RXF 393 renal
  GI50: 137 nM
  TGI: 484 nM
SF-295 CNS
  GI50: 2040 nM
  TGI: 4280 nM
SK-MEL-2 melanoma
  GI50: 176 nM
  TGI: 704 nM
SK-MEL-28 melanoma
  GI50: 735 nM
  TGI: 2600 nM
SK-MEL-5 melanoma
  GI50: 305 nM
  TGI: 928 nM
SK-OV-3 ovarian
  GI50: 356 nM
  TGI: 1460 nM
SR leukemia
  GI50: 77.3 nM
  TGI: 206 nM
SW-620 colon
  GI50: 444 nM
  TGI: 1540 nM
TK-10 renal
  GI50: 2830 nM
  TGI: > 100000 nM
UACC-257 melanoma
  GI50: 362 nM
  TGI: 1250 nM
UACC-62 melanoma
  GI50: 356 nM
  TGI: 1820 nM
UO-31 renal
  GI50: 4170 nM
  TGI: > 100 µM

— PubChem BioAssay (NCI)
